Test results reported in patent publication US12569509B2, “Method and composition for preventing and treating viral infections” (priority 2017, dated 2026).
Entries after “also recorded” stand apart in the source; their conditions may differ.

Legend:
human PBMC [1] = test: LPS stimulated cytokine secretion in human PBMC pretreated with compounds (Phase 2); format: cell-based; design: TNF-α concentration in supernatant / IL-1β concentration in supernatant / IL-6 concentration in supernatant / IL-2 concentration in supernatant / IFN-g concentration in supernatant: unit of the concentration uncertain; conditions: for Effect on LPS stimulated secretion of IL-1b / Effect on LPS stimulated secretion of IL-6: 200 mM (so in the source), 2 h pretreatment, 1 ng/mL LPS 8 hours; for IL-2 concentration in supernatant / TNF-α concentration in supernatant / IL-1β concentration in supernatant / IFN-g concentration in supernatant / IL-6 concentration in supernatant: 8-hour 1 ng/mL LPS stimulation; for IL-2 concentration in supernatant: LLOQ = 1.698 pg/mL; for TNF-α concentration in supernatant: LLOQ = 2.018 pg/mL; for IL-1β concentration in supernatant: LLOQ = 2.299 pg/mL; for IFN-g concentration in supernatant: LLOQ = 2.792 pg/mL; for IL-6 concentration in supernatant: LLOQ = 0.831
Excerpt: Results are represented as fold-change relative to LPS treatment alone for each cytokine calculated by means from 3 separate donors.
RPMI medium alone, RPMI supplemented with 0.2% DMSO (to mimic treatment conditions) or LPS stimulation alone were used as controls.
Except for the two negative control conditions, all 3 donors responded to all experimental conditions tested with the secretion of TNF-α, IL-1β, and IL-6 albeit with a high degree of variability.

human PBMC [2] = test: Test compound induced cytokine secretion in human PBMC without LPS, 10 or 26 hours (Phase 1); conditions: 100 mM (so in the source), 10 hours, no LPS
Procedure: Secretion of the cytokines TNF-α (A), IL-1β (B) and IL-6 (C) were measured in supernatant of PBMC cultured in the presence of test compounds using a Luminex platform with the Milliplex MAP Human High Sensitivity T Cell Panel Immunology Multiplex Assay. Results are represented as a mean from 3 separate donors in pg/mL.
Whole blood was collected from 3 human donors and peripheral blood mononuclear cells (PBMC) were isolated using the Ficoll-Paque density gradient method. PBMC were then plated and left untouched for 2 hours to account for a 2 hours pretreatement period (see below for details), and incubated for 8 or 24 hours in a humidified incubator set to maintain 37° C. with 5% CO2, with different concentrations of LPS as per Table 11 in order to determine the optimal stimulation conditions to detect cytokine release. […] RPMI medium alone or supplemented with 0.1% DMSO (to mimic treatment conditions) were used as negative controls.
At the end of the incubation period, supernatant samples were recovered and stored at −80° C. until analysis (in duplicate) using a Luminex platform with the Milliplex MAP Human High Sensitivity T Cell Panel Immunology Multiplex Assay (Cat. No. HSTCMAG-28SK) with the following selected cytokines of interest: IL-1, IL-2, IL-6, IFN-g and TNF-α. Each assay was defined by one calibration curve and 2 sets of QCs and the results were expressed as pg/mL.

## O=C(O)c1cc(O)c(O)c(O)c1 [Gallic Acid, Gallic acid]
Human PBMC [1]
  Effect on LPS stimulated secretion of IL-1b: inhibition
  Effect on LPS stimulated secretion of IL-6: inhibition
Human PBMC [1]; listed as gallic acid
  Effect on LPS stimulated secretion of IL-1b: decrease; also recorded: inhibits
  Effect on LPS stimulated secretion of IL-6: decrease; also recorded: inhibits
Human PBMC [1]; Donor 1, 10 (unit uncertain)
  IL-2 concentration in supernatant: <LLOQ
  TNF-α concentration in supernatant: 2295.37 pg/mL
  IL-1β concentration in supernatant: 4009.57 pg/mL
  IFN-g concentration in supernatant: <LLOQ
  IL-6 concentration in supernatant: 1244.44 pg/mL
Human PBMC [1]; Donor 1, 100 (unit uncertain)
  IL-2 concentration in supernatant: <LLOQ
  TNF-α concentration in supernatant: 2673.83 pg/mL
  IL-1β concentration in supernatant: 2029.63 pg/mL
  IFN-g concentration in supernatant: <LLOQ
  IL-6 concentration in supernatant: 776.23 pg/mL
Human PBMC [1]; Donor 1, 200 (unit uncertain)
  IL-2 concentration in supernatant: <LLOQ
  TNF-α concentration in supernatant: 1973.87 pg/mL
  IL-1β concentration in supernatant: 905.16 pg/mL
  IFN-g concentration in supernatant: <LLOQ
  IL-6 concentration in supernatant: 466.09 pg/mL
Human PBMC [1]; Donor 2, 10 (unit uncertain)
  IL-2 concentration in supernatant: <LLOQ
  TNF-α concentration in supernatant: 924.89 pg/mL
  IL-1β concentration in supernatant: 2259.03 pg/mL
  IFN-g concentration in supernatant: <LLOQ
  IL-6 concentration in supernatant: 547.26 pg/mL
Human PBMC [1]; Donor 2, 100 (unit uncertain)
  IL-2 concentration in supernatant: <LLOQ
  TNF-α concentration in supernatant: 2001.65 pg/mL
  IL-1β concentration in supernatant: 1867.42 pg/mL
  IFN-g concentration in supernatant: <LLOQ
  IL-6 concentration in supernatant: 694.6 pg/mL
Human PBMC [1]; Donor 2, 200 (unit uncertain)
  IL-2 concentration in supernatant: <LLOQ
  TNF-α concentration in supernatant: 1867.55 pg/mL
  IL-1β concentration in supernatant: 858.76 pg/mL
  IFN-g concentration in supernatant: <LLOQ
  IL-6 concentration in supernatant: 426.3 pg/mL
Human PBMC [1]; Donor 3, 10 (unit uncertain)
  IL-2 concentration in supernatant: <LLOQ
  TNF-α concentration in supernatant: 4990.73 pg/mL
  IL-1β concentration in supernatant: 4065.13 pg/mL
  IFN-g concentration in supernatant: <LLOQ
  IL-6 concentration in supernatant: 547.26 pg/mL
Human PBMC [1]; Donor 3, 100 (unit uncertain)
  IL-2 concentration in supernatant: <LLOQ
  TNF-α concentration in supernatant: 3070.21 pg/mL
  IL-1β concentration in supernatant: 1788.4 pg/mL
  IFN-g concentration in supernatant: <LLOQ
  IL-6 concentration in supernatant: 694.6 pg/mL
Human PBMC [1]; Donor 3, 200 (unit uncertain)
  IL-2 concentration in supernatant: <LLOQ
  TNF-α concentration in supernatant: 4121.3 pg/mL
  IL-1β concentration in supernatant: 1478.91 pg/mL
  IFN-g concentration in supernatant: <LLOQ
  IL-6 concentration in supernatant: 426.3 pg/mL
Human PBMC [2]
  TNF-α, IL-1β, and/or IL-6 production, compound alone: minor increases
